Data: PubChem BioAssay AID463181 (University of Pittsburgh Molecular Library Screening Center, 2010)
pIC50: −log10 of the molar value. Inconclusive results are not listed. Calls of active or inactive are those of the source.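 How the source made its calls: active means compounds with IC50 under 50 µM in each of two repeat runs and on average; inconclusive means just one of the two runs above 50 µM; inactive means both runs and average above 50 µM.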

Columns and labels:
[1] = inhibitors of zVAD-triggered L929 necroptosis, potency, dose response, L929 cells, duplicate IC50 (AID 463181); conditions: L929 zVAD necroptosis rescue, ATP luminescence, 24 h; inhibition of cell death; at 50 µM; stronger effect = higher value
[2] = tested on: L929 zVAD necroptosis rescue, ATP luminescence, 24 h; test: as above

| Structure (SMILES) | inhibition [1] [%] | pIC50 [2] | IC50 [2] |
| --- | --- | --- | --- |
| C=C1C(=O)[C@@]23[C@H](O)C[C@@H]4C(C)(C)CC[C@H](O)[C@@]4(C)[C@@H]2CC[C@@H]1[C@H]3O | 144 | 5.00 | – |
| O=C(Nc1cccc(Cl)c1)N1N=CCC1c1ccccc1 (stereo not drawn) | 81.4 | 4.77 | – |
| Cc1noc(C)c1/C=N/Nc1ccccn1 | 81.6 | 4.77 | – |
| COc1ccc(N=Cc2c(O)[nH]c3ccccc23)cc1OC | 81.8 | 5.17 | – |
| Brc1ccc(COn2ccnc2)cc1 | 79.8 | 4.77 | – |
| Cn1nc(C(C)(C)C)cc1NC(=O)Nc1cc(Cl)cc(Cl)c1 | 2.91 | – | > 20 µM (inactive) |
| O=C(CSc1nnnn1-c1ccc2c(c1)OCCO2)Nc1nc2c(s1)CCCC2 | 0.775 | – | > 20 µM (inactive) |
| Cc1cnc(NC(=O)c2cc3c(s2)CCCC3)s1 | 10.4 | – | > 20 µM (inactive) |
| C[C@@H]1C[C@@H]2O[C@H]2/C=C\C=C\C(=O)Cc2c(Cl)c(O)cc(O)c2C(=O)O1 | 120 | 6.43 | – |
| O=C1C=CC(O)(c2cc(=O)c3c(O)cc(O)cc3o2)C=C1 | 78.5 | 5.00 | – |
| O=C(Nc1nccs1)c1ccc(CSc2nnnn2-c2ccccc2)cc1 | 0.93 | – | > 20 µM (inactive) |
| CCc1cccc2c(C(=O)COC(=O)c3ccc(O)cc3)c[nH]c12 | 1.41 | – | > 20 µM (inactive) |
| Cc1ccc2c(c1)C(C)CC(C)(C)N2C(=O)NC1CCCCC1 (stereo not drawn) | 1.73 | – | > 20 µM (inactive) |
| Cc1cc(N/N=C/c2ccncc2)nc2ccccc12 | 81.6 | 4.73 | – |
| Clc1ccc(COn2ccnc2)cc1Cl | 82.6 | 4.96 | – |
| O=C1Nc2ccccc2/C1=C/c1cnc[nH]1 | 85.9 | 5.01 | – |
| O=C(Nc1nccs1)c1ccc(S(=O)(=O)NCc2cccs2)cc1 | 2.91 | – | > 20 µM (inactive) |
| CCN1CCN(Cc2ccc(NC(=O)c3ccc(C)c(NC(=O)c4nccnc4N)c3)cc2C(F)(F)F)CC1 | 74 | 5.84 | – |
| O=C(/C=C/c1cccc(F)c1)Nc1nccs1 | 1.43 | – | > 20 µM (inactive) |
| Cc1ccc(/C=N\Nc2nc3ccc(Cl)cc3[nH]2)o1 | 0.613 | – | > 20 µM (inactive) |
| CCN(CC)CCn1c2ccccc2c2cnc(N)c(C#N)c21 | 68.7 | 4.75 | – |
| COC(=O)c1ccn(Cc2ccccc2Cl)n1 | 81.2 | 4.79 | – |

| Structure (SMILES) | inhibition [1] [%] | pIC50 [2] | IC50 [2] |
| --- | --- | --- | --- |
| COc1cc(N=Cc2c(O)[nH]c3ccccc23)cc(OC)c1OC | 89.1 | 5.15 | – |
| CC(=O)OC[C@]12CCC(C)=C[C@H]1O[C@@H]1[C@H](O)[C@@H](OC(C)=O)[C@@]2(C)[C@]12CO2 | 114 | > 7.41 | – |
| CC(=O)Nc1ccc(Sc2ncccc2C(=O)Nc2ccc(OC(F)(F)F)cc2)cn1 | 5.08 | – | > 20 µM (inactive) |
| OCCCNc1nccc(-c2cc(Nc3cccc(Cl)c3)ncn2)n1 | 82.7 | 4.97 | – |
| COc1cc(/C=N/Nc2ccc(C(F)(F)F)cn2)ccc1O | 82.3 | 4.78 | – |
| Cc1ccc(C(=O)Nc2cccc(C(F)(F)F)c2)cc1Nc1cnccn1 | 74.3 | 4.96 | – |
| Oc1ccc(/C=N/Nc2ccc(C(F)(F)F)cn2)cc1O | 87.6 | 5.38 | – |
| CN(C)S(=O)(=O)c1ccc(Cl)c(NC(=O)CSc2nnnn2-c2ccc(O)cc2)c1 | 78.6 | 4.75 | – |
| COc1cc(/C=N/Nc2ccccn2)ccc1O | 91.1 | 4.83 | – |
| CCN1CCN(Cc2ccc(NC(=O)c3cc(NC(=O)c4cnn(-c5ccccc5)c4N)cc(OC)c3)cc2C(F)(F)F)CC1 | 80.3 | 5.00 | – |
| O=C(CSc1nnc(NC2CCCCC2)s1)Nc1ccc2c(c1)C(=O)c1ccccc1C2=O | 0.754 | – | > 20 µM (inactive) |
| Cc1ccc2[nH]c3c(c2c1)CCc1cn[nH]c1-3 | 82.2 | 5.89 | – |
| O=C(OCn1ncc(Br)c(Br)c1=O)c1ccc(F)cc1 | 8.06 | – | > 20 µM (inactive) |
| Nc1nnnn1/N=C/C(Br)=C/c1ccccc1 | 0.0265 | – | > 20 µM (inactive) |
| CC(=O)Nc1ccc(/C=N/Nc2nc3ccccc3s2)cc1 | 70.2 | 4.73 | – |
| CCN1CCN(Cc2ccc(NC(=O)c3ccc(C)c(NC(=O)c4csc(-c5ccncc5)n4)c3)cc2C(F)(F)F)CC1 | 90.1 | 5.23 | – |
| CCN(CC)Cc1cc2[nH]c3c4ccc(Cl)cc4ncc3c2cc1OC | 0.811 | – | > 20 µM (inactive) |
| COc1ccc(/C=N/Nc2ccccn2)cc1OC | 80.7 | 4.79 | – |
| COc1ccc(-n2cnnc2SCC(=O)Nc2cc(C(C)(C)C)nn2-c2ccccc2)cc1 | 70 | 5.32 | – |
| COc1cc(/C=N/Nc2nc3ccccc3s2)ccc1OC(=O)c1ccccc1F | 1.24 | – | > 20 µM (inactive) |
| COc1cc(NC(=O)c2cnc(N)s2)cc(C(=O)Nc2cccc(C(F)(F)F)c2)c1 | 75.8 | 4.76 | – |
| CCCc1cc(C(=O)Nc2nccs2)cs1 | 76.6 | 5.02 | – |

| Structure (SMILES) | inhibition [1] [%] | pIC50 [2] | IC50 [2] |
| --- | --- | --- | --- |
| Cc1ccc(NC(=O)CSc2nnnn2-c2ccc3c(c2)OCO3)cc1C | 0.243 | – | > 20 µM (inactive) |
| O=C(CSc1nnnn1-c1ccc(O)cc1)Nc1cccc(S(=O)(=O)N2CCCC2)c1 | 86.9 | 5.23 | – |
| Cc1ccc(C2CC(=O)NC(SCC(=O)Nc3nccs3)=C2C#N)cc1 (stereo not drawn) | 80.8 | 6.60 | – |
| Clc1ccc2[nH]c3c(c2c1)CCc1cn[nH]c1-3 | 103 | 5.58 | – |
| c1ccc2c3c([nH]c2c1)-c1[nH]ncc1CC3 | 78.5 | 6.71 | – |
| COc1ccc(/C=C2\N=C(SC)NC2=O)cc1 | 80.6 | 5.28 | – |
| Cc1cnc(NC(=O)c2ccc(OCC3CCCO3)cc2)s1 (stereo not drawn) | 74.2 | 5.07 | – |
| Cc1ccc(-c2nc(Nc3ccccc3)n[nH]2)cc1 | 0.11 | – | > 20 µM (inactive) |
| Nc1ccccc1Nc1cc(-c2ccccc2)[nH]n1 | 90.9 | 5.56 | – |
| Cc1[nH]c2ccccc2c1/C=N/Nc1ccccn1 | 92.7 | 4.82 | – |
| O=C(CCl)Nc1cc(SCC(O)CO)cc([N+](=O)[O-])c1 (stereo not drawn) | 94.4 | 4.84 | – |
| Cn1c(N)c(C(=O)N/N=C/c2ccccc2)sc1=S | 76.3 | 4.76 | – |
| Cc1cn(-c2cc(C(=O)Nc3ccc(C)c(NC(=O)C(=O)c4c[nH]c5ccccc45)c3)cc(C(F)(F)F)c2)cn1 | 1.07 | – | > 20 µM (inactive) |
| Cn1nnnc1SCc1ccc(C(=O)Nc2nccs2)cc1 | 76.4 | 4.77 | – |
| CCN1C(=O)/C(=C/c2ccc(C)s2)NC1=S | 88.7 | 5.69 | – |
| CN(CC1CCCO1)S(=O)(=O)c1ccc(C(=O)Nc2nccs2)cc1 (stereo not drawn) | 97.5 | 5.13 | – |
| COc1ccc(/C=N/Nc2nc3ccccc3s2)cc1O | 72.2 | 4.76 | – |
| O=C(C1=NNCC1c1ccc(Cl)cc1)C1CO1 (stereo not drawn) | 103 | 5.43 | – |
| O=C(C1=NNCC1c1ccccc1)C1CO1 (stereo not drawn) | 87.3 | 4.80 | – |
| C[C@H]1C[C@@H](C)C(=O)[C@@H]([C@H](O)CC2CC(=O)NC(=O)C2)C1 | 112 | 6.01 | – |
